Columns and labels:
BSA = target: T1, BSA (Bos taurus, UniProt P02769); test: BSA binding study (tryptophan emission quenching); set-up: species or system bovine
T1 construct: purchased Himedia Chemical Limited
Description: Serum albumin has the capacity to bind with the ligands and helps in the uptake of the drug inside the cells. BSA is commonly used in this study because of its similar structural homology to HSA. […] A significant quenching of BSA fluorescence can be observed upon interaction with drug molecule.[27] The BSA solution of 3 μM concentration was titrated against 10–100 μM of the drug 7e upon excitation of 280 nm. […] The Stern–Volmer constant (KBSA), quenching constant (Kq), binding constant (K), a number of binding sites (n) were calculated from the eqn (5) and (6) (Fig. S4b and c ^†). The Kq values of the newly synthesized compounds were in the order of 10^12 M^−1 s^−1 which were higher enough than maximum scatter collision quenching constant (2.0 × 10^10 M^−1 s^−1) of BSA quenchers (Table 2).[28] High potency of these complexes in cancer cells may be attributed by the strong binding with serum albumin which overcomes the drug resistance by GSH. […]
BSA is a carrier protein that increases solubility of the drug in the blood by binding to it.
Fluorescence spectroscopy is an efficient method to study the interaction of the BSA with the compound by quenching mechanism. The binding of the complexes to the bovine serum albumin (BSA) were measured by tryptophan emission quenching study. The complex […]
solutions (0-60 μM) were gradually added to the solution of BSA (2 μM) in 5 mM Tris- […]
HCl/NaCl buffer (pH 7.2) and the quenching of the emission signals at 350 nm (λex = 295 […]
nm) were recorded. The emission intensity of BSA decreases gradually on increasing the […]
complex concentration. The quenching constant (KBSA) has been determined quantitatively by […]
using Stern-Volmer equation. Stern-Volmer plots of I0/I vs. [complex] were made using the […]
corrected fluorescence data taking into account the effect of dilution. Linear fit of the data […]
Where I0 and I are the emission intensities of BSA in the absence and in the presence of […]
quencher of concentration [Q], gave the quenching constant (K BSA) using Origin Pro 8.5 […]
software. kq is the quenching rate constant, τ0 is the average lifetime of the tryptophan in BSA […]
without quencher reported as 1 x 10-8 sec. The binding propensity of the quenchers with […]
respective serum proteins were expressed by Scatchard equation. For such static quenching […]
interaction, the binding constant (K) and the number of binding sites (n) can be determined […]
according to the Scatchard equation: […]
The linear fitting of the log (I0-I)/I vs. log [Q] plot gives values of n and K from slope and […]
2.8. Stability study, Solubility study, metabolic stability study, Caco-2 permeability study
%Nominal = Mean of calculated concentration of test samples ×100 ….(7) […]
Calculated concentration from calibration curve
CL = k × volume of reaction mixture (mL) … (8) […]
intr protein content (mg)

[1] = Stability in water, GSH and MTT condition by UV-vis spectroscopy; type: physicochemical
Description: The stability of compounds in water, GSH, and MTT condition (10% DMSO in PBS buffer) was studied. Water is a key factor because it widens the application in the biological field. […] The stability of complex 7e in water (pH 7.2) and GSH were investigated by UV-vis spectroscopy over a period of 20 h of time (Fig. S2a and b ^†).

[2] = Buffer solubility (LC-MS/MS); type: physicochemical; conditions: aqueous buffer, kinetic from dmso stock; pH 7.4 buffer, 2 h incubation
Description: LC-MS/MS methods were developed for compound 7g to quantify the drug concentration and in vitro study (i.e. buffer solubility, buffer stability, metabolic stability, and permeability) in a systemic manner (Table 4). Chromatographic elution conditions were set with the use of 5 mM ammonium formate containing 0.1% formic acid and acetonitrile containing 0.1% formic acid with C8, Kromasil, and 4.6 × […] as a stationary phase (Fig. S5a and b ^†). […] For the data analysis, % accuracy of compound 7g was calculated and it was soluble up to 25 μM (Fig. 3, eqn (7) ^†).
The in vitro solubility and stability of 7g were evaluated in pH 7.4 buffer. The buffer solubility and stability studies were conducted at six different concentrations ranging from 3.13 to 100 μM. For the data analysis, % stability of compound 7g at 120 min was calculated with respect to 0 min time point samples and it was stable up to 2 hours in pH 7.4 buffers. Data analysis was performed through the eqn (8) ^† and was tabulated (Table 4). Compound 7g found to be stable up to 2 hours with % remaining of 71% in pH 7.4.

[3] = Metabolic stability in human liver microsomes; type: in vitro ADME; conditions: for % Metabolism in 30 min: 0.5 μM, 0.5 mg ml^−1 protein, NADPH, 37 °C; for half-life at 0.5 μM: human, liver microsomes
Description: (§1) The in vitro metabolic rate of 7g was determined in liver microsomes and the intrinsic clearance (CLintr) was estimated. The study was conducted at 0.5 μM substrate concentration and microsomal protein concentration of 0.5 mg ml^−1. Metabolic stability study in the presence of microsomes and cofactor NADPH was performed at 37 °C, 60 rpm for 30 min time duration. NADPH free control incubation was performed simultaneously for 30 min to understand if there are any non-enzymatic metabolism related issues. […] Intrinsic clearance as given in Table 6, was calculated using eqn (8). ^†

[4] = Metabolic stability in mouse liver microsomes; type: in vitro ADME; conditions: for % Metabolism in 30 min: 0.5 μM, 0.5 mg ml^−1 protein, NADPH, 37 °C; for half-life at 0.5 μM: mouse, liver microsomes
Description: as §1

[5] = Metabolic stability in dog liver microsomes; type: in vitro ADME; conditions: for % Metabolism in 30 min: 0.5 μM, 0.5 mg ml^−1 protein, NADPH, 37 °C; for half-life at 0.5 μM: dog, liver microsomes
Description: as §1

[6] = Biopharmaceutical classification (BCS / BDDCS); conditions: primarily classified
[7] = Metabolic stability in rat liver microsomes; type: in vitro ADME; conditions: for % Metabolism in 30 min: 0.5 μM, 0.5 mg ml^−1 protein, NADPH, 37 °C; for half-life at 0.5 μM: rat, liver microsomes
Description: as §1

T1 sequence (P02769 25-607): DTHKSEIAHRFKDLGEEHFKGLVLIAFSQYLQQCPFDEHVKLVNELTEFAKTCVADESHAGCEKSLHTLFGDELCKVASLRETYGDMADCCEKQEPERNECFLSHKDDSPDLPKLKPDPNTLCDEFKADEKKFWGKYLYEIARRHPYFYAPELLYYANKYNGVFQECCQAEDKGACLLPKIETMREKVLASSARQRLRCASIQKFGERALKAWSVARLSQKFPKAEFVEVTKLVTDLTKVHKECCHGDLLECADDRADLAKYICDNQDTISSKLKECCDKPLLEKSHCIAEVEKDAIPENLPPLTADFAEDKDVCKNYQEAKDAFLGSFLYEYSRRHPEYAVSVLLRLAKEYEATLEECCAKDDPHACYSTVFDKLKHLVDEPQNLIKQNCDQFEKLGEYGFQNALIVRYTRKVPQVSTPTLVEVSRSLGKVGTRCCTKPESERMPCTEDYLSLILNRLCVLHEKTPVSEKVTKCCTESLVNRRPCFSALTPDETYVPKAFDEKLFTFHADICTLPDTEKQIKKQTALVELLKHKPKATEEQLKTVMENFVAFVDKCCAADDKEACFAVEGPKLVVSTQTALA

With Clc1cc2nc(COc3ccccc3-c3nc4ccccc4s3)c(COc3ccccc3-c3nc4ccccc4s3)nc2cc1Cl [Compound 7e] the “K BSA, Stern–Volmer quenching constant” value (BSA) was 10200 M⁻¹, the “K q, quenching rate constant” value (BSA) was 1.02e+12 M⁻¹ s⁻¹ and the “quenching of BSA fluorescence” value (BSA; BSA 3 μM titrated with 10–100 μM drug, excitation 280 nm) was “more than 50%”. The “n, number of binding sites” value (BSA; Scatchard equation) was 1.87, the Kd (BSA; Scatchard equation, read-out: K, binding constant with BSA (converted)) was 3.82 mM and the “stability in MTT condition” value ([1]; 10% DMSO in PBS buffer, 18 h) was “insignificant change of absorbance”. For the same compound, the “stability in GSH” value ([1]; GSH, 20 h) was “no changes in absorbance” and the stability in water ([1]; water pH 7.2, 20 h) was “no changes in absorbance”.
In the case of COc1ccc2nc(COc3ccccc3-c3nc4ccccc4s3)c(COc3ccccc3-c3nc4ccccc4s3)nc2c1 [Compound 7g, 2,2'-((((6-methoxyquinoxaline-2,3-diyl)bis(methylene))bis(oxy))bis(2,1-phenylene))bis(benzo[d]thiazole)], the solubility at 2 h [2] is reported as ≤ 25 µM, the CLint ([3]; HLM set 1) is reported as 28 μl per min per mg protein and the “% Metabolism in 30 min” value ([3]; HLM set 1) is reported as 35%. The CLint ([3]; HLM set 2) was 25 μl per min per mg protein, the “% Metabolism in 30 min” value ([3]; HLM set 2) was 38% and the half-life at 0.5 μM ([3]; HLM set 1) was 0.821 h. The half-life at 0.5 μM ([3]; HLM set 2) was 0.932 h, the CLint ([4]; MLM set 1) was 13 μl per min per mg protein and the “% Metabolism in 30 min” value ([4]; MLM set 1) was 12%. For the same compound, the CLint ([4]; MLM set 2) was 28 μl per min per mg protein, the “% Metabolism in 30 min” value ([4]; MLM set 2) was 37% and the half-life at 0.5 μM ([4]; MLM set 1) was 1.83 h. The half-life at 0.5 μM ([4]; MLM set 2) was 0.818 h, the CLint ([5]; DLM set 1) was 18 μl per min per mg protein and the “% Metabolism in 30 min” value ([5]; DLM set 1) was 21%. The CLint ([5]; DLM set 2) was 12 μl per min per mg protein, the “% Metabolism in 30 min” value ([5]; DLM set 2) was 14% and the half-life at 0.5 μM ([5]; DLM set 1) was 1.28 h. For the same compound, the half-life at 0.5 μM ([5]; DLM set 2) was 1.91 h, the BCS class [6] was “BCS class 4” and the BDDCS class [6] was “BDDCS class 4”. The CLint ([7]; RLM set 1) was 4 μl per min per mg protein, the “% Metabolism in 30 min” value ([7]; RLM set 1) was 12% and the CLint ([7]; RLM set 2) was 14 μl per min per mg protein. For the same compound, the “% Metabolism in 30 min” value ([7]; RLM set 2) was 19%, the half-life at 0.5 μM ([7]; RLM set 1) was 5.85 h and the half-life at 0.5 μM ([7]; RLM set 2) was 1.69 h.

Source: paper PMC9061853, “Luminescent bis(benzo[d]thiazolyl)quinoxaline: facile synthesis, nucleic acid and protein BSA interaction, live-cell imaging, biopharmaceutical research and cancer theranostic application” (RSC Advances, 2019)
